Reference: patent US20260199483A1 (Bright Angel Therapeutics Inc., priority 2022, published 2026)

Molecular target: T1, purified recombinant Yck2 (Candida albicans, UniProt A0A1D8PKB4)
T1 construct: Yck2 residues 37-345 were PCR amplified from C. albicans genomic DNA; His6 (N); TEV protease site (N); made in house; host or cells: E. coli BL21(DE3)-Gold
Test: HotSpot kinase assay
Format: biochemical, C. albicans
Protocol: IC50s were determined using the in vitro HotSpot kinase assay (purified enzymes, ^33P-ATP, an appropriate substrate and 1 μM ATP). For enzyme inhibition assays, compounds were tested in range of ten concentrations from 10 uM to 0.0005 uM using purified recombinant Yck2. Reaction conditions were 1 uM ATP, one hour incubation with inhibitor, and kinase activity detected using 33-ATP phosphorylation of an appropriately selected peptide substrate.
Yck2 residues 37-345 were PCR amplified from C. albicans genomic DNA and subcloned into the vector pMCSG53, which codes for a N-terminal His6 tag, TEV protease site, followed by the Yck2 protein. E. coli BL21(DE3)-Gold competent cells were transformed with this plasmid and the Yck2 protein was purified using methodology previously described (Stogios et al., ACS Chem. Biol. 13, 1322-1332 (2018)).

T1 sequence (A0A1D8PKB4 entry or part of it): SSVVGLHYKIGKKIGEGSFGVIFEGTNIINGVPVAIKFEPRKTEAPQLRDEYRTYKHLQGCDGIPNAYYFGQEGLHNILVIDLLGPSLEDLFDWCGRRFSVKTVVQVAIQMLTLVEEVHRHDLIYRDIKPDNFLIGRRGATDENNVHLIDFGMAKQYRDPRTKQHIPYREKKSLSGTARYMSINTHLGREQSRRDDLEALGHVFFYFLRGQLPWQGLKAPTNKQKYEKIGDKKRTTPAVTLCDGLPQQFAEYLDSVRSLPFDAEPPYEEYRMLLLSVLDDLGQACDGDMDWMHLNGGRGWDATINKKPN

| SMILES | IC50 |
| --- | --- |
| Nc1nccc(-c2c(-c3ccc(F)cc3)ncn2C2CCN(C[C@](O)(Cn3cncn3)c3ccc(F)cc3F)CC2)n1 (single isomer, unassigned) [Compound I-33] | 12.3 nM |
| Cn1cc(-c2ccnc3c2C(=O)N(CCC2CCN(C[C@](O)(Cn4cncn4)c4ccc(F)cc4F)CC2)C3)c(-c2ccc(F)cc2)n1 (single isomer, unassigned) [Compound I-248] | 4.69 nM |
| Cn1cc(-c2ccnc3c2C(=O)N(CC(O)(Cn2ccnc2)c2ccc(F)cc2F)C3)c(-c2ccc(F)cc2)n1 (centres unmarked) [Compound I-1, 6-(2-(2,4-difluorophenyl)-2-hydroxy-3-(1H-imidazol-1-yl)propyl)-4-(3-(4-fluorophenyl)-1-methyl-1H-pyrazol-4-yl)-6,7-dihydro-5H-pyrrolo[3,4-b]pyridin-5-one] | 46.3 nM |
| CN1Cc2nccc(-c3cn(CCC(O)(Cn4cncn4)c4ccc(F)cc4F)nc3-c3ccc(F)cc3)c2C1=O (centres unmarked) [Compound I-2, 4-(1-(3-(2,4-difluorophenyl)-3-hydroxy-4-(1H-1,2,4-triazol-1-yl)butyl)-3-(4-fluorophenyl)-1H-pyrazol-4-yl)-6-methyl-6,7-dihydro-5H-pyrrolo[3,4-b]pyridin-5-one] | 107 nM |
| Cn1cc(-c2ccncc2CNCCC(O)(Cn2cncn2)c2ccc(F)cc2F)c(-c2ccc(F)cc2)n1 (centres unmarked) [Compound I-3, 2-(2,4-difluorophenyl)-4-(((4-(3-(4-fluorophenyl)-1-methyl-1H-pyrazol-4-yl)pyridin-3-yl)methyl)amino)-1-(1H-1,2,4-triazol-1-yl)butan-2-ol] | 179 nM |
| Cn1cc(-c2ccncc2CNC2CCN(CC(O)(Cn3cncn3)c3ccc(F)cc3F)CC2)c(-c2ccc(F)cc2)n1 (centres unmarked) [Compound I-4, 2-(2,4-difluorophenyl)-1-(4-(((4-(3-(4-fluorophenyl)-1-methyl-1H-pyrazol-4-yl)pyridin-3-yl)methyl)amino)piperidin-1-yl)-3-(1H-1,2,4-triazol-1-yl)propan-2-ol] | 178 nM |
| Cn1cc(-c2ccncc2CNCC(O)(Cn2cncn2)c2ccc(F)cc2F)c(-c2ccc(F)cc2)n1 (centres unmarked) [Compound I-5, 2-(2,4-difluorophenyl)-1-(((4-(3-(4-fluorophenyl)-1-methyl-1H-pyrazol-4-yl)pyridin-3-yl)methyl)amino)-3-(1H-1,2,4-triazol-1-yl)propan-2-ol] | 335 nM |
| Cn1cc(-c2ccnc3c2C(=O)N(CC(O)(Cn2cncn2)c2ccc(F)cc2F)C3)c(-c2ccc(F)cc2)n1 (centres unmarked) [Compound I-6, 6-(2-(2,4-difluorophenyl)-2-hydroxy-3-(1H-1,2,4-triazol-1-yl)propyl)-4-(3-(4-fluorophenyl)-1-methyl-1H-pyrazol-4-yl)-6,7-dihydro-5H-pyrrolo[3,4-b]pyridin-5-one] | 72.7 nM |
| Nc1nccc(-c2c(-c3ccc(F)cc3)ncn2C2CCN(CC(O)(Cn3ccnn3)c3ccc(F)cc3F)CC2)n1 (centres unmarked) [Compound I-35, 1-(4-(5-(2-aminopyrimidin-4-yl)-4-(4-fluorophenyl)-1H-imidazol-1-yl)piperidin-1-yl)-2-(2,4-difluorophenyl)-3-(1H-1,2,3-triazol-1-yl)propan-2-ol] | 6.8 nM |
| Nc1nccc(-c2c(-c3ccc(F)cc3)ncn2C2CCN(CC[C@](O)(Cn3cncn3)c3ccc(F)cc3F)CC2)n1 [Compound I-53, (R)-4-(4-(5-(2-aminopyrimidin-4-yl)-4-(4-fluorophenyl)-1H-imidazol-1-yl)piperidin-1-yl)-2-(2,4-difluorophenyl)-1-(1H-1,2,4-triazol-1-yl)butan-2-ol] | 9.52 nM |
| Nc1nccc(-c2c(-c3ccc(F)cc3)ncn2C2CCN(CC[C@@](O)(Cn3cncn3)c3ccc(F)cc3F)CC2)n1 [Compound I-55, (S)-4-(4-(5-(2-aminopyrimidin-4-yl)-4-(4-fluorophenyl)-1H-imidazol-1-yl)piperidin-1-yl)-2-(2,4-difluorophenyl)-1-(1H-1,2,4-triazol-1-yl)butan-2-ol] | 8.41 nM |
| Nc1nccc(-c2c(-c3ccc(F)cc3)ncn2C2CCN(CC(=O)NCC(O)(Cn3cncn3)c3ccc(F)cc3F)CC2)n1 (centres unmarked) [Compound I-71, 2-(4-(5-(2-aminopyrimidin-4-yl)-4-(4-fluorophenyl)-1H-imidazol-1-yl)piperidin-1-yl)-N-(2-(2,4-difluorophenyl)-2-hydroxy-3-(1H-1,2,4-triazol-1-yl)propyl)acetamide] | 9.33 nM |
| Nc1nccc(-c2c(-c3ccc(F)cc3)ncn2C2CCN(C(=O)CCNCC(O)(Cn3cncn3)c3ccc(F)cc3F)CC2)n1 (centres unmarked) [Compound I-77, 1-(4-(5-(2-aminopyrimidin-4-yl)-4-(4-fluorophenyl)-1H-imidazol-1-yl)piperidin-1-yl)-3-((2-(2,4-difluorophenyl)-2-hydroxy-3-(1H-1,2,4-triazol-1-yl)propyl)amino)propan-1-one] | 0.4 nM |
| O=C(NCC(O)(Cn1cncn1)c1ccc(F)cc1F)c1cccc2c(-c3ccncc3)c(-c3ccc(F)cc3)nn12 (centres unmarked) [Compound I-151, N-(2-(2,4-difluorophenyl)-2-hydroxy-3-(1H-1,2,4-triazol-1-yl)propyl)-2-(4-fluorophenyl)-3-(pyridin-4-yl)pyrazolo[1,5-a]pyridine-7-carboxamide] | 765 nM |
| OC(CNCc1ccc2c(-c3ccncc3)c(-c3ccc(F)cc3)nn2c1)(Cn1cncn1)c1ccc(F)cc1F (centres unmarked) [Compound I-152, 2-(2,4-difluorophenyl)-1-(((2-(4-fluorophenyl)-3-(pyridin-4-yl)pyrazolo[1,5-a]pyridin-6-yl)methyl)amino)-3-(1H-1,2,4-triazol-1-yl)propan-2-ol] | 3.37 nM |
| Cn1cc(-c2ccncc2COCCC(O)(Cn2cncn2)c2ccc(F)cc2F)c(-c2ccc(F)cc2)n1 (centres unmarked) [Compound I-233, 2-(2,4-difluorophenyl)-4-((4-(3-(4-fluorophenyl)-1-methyl-1H-pyrazol-4-yl)pyridin-3-yl)methoxy)-1-(1H-1,2,4-triazol-1-yl)butan-2-ol] | 65.9 nM |
| Nc1nccc(-c2c(-c3ccc(F)cc3)ncn2C2CCN(CCC(=O)NC3CCN(CC(O)(Cn4cncn4)c4ccc(F)cc4F)CC3)CC2)n1 (centres unmarked) [Compound I-234, 3-(4-(5-(2-aminopyrimidin-4-yl)-4-(4-fluorophenyl)-1H-imidazol-1-yl)piperidin-1-yl)-N-(1-(2-(2,4-difluorophenyl)-2-hydroxy-3-(1H-1,2,4-triazol-1-yl)propyl)piperidin-4-yl)propanamide] | 8.12 nM |
| Cn1cc(-c2ccncc2COCC[C@](O)(Cn2cncn2)c2ccc(F)cc2F)c(-c2ccc(F)cc2)n1 [Compound I-235, (R)-2-(2,4-difluorophenyl)-4-((4-(3-(4-fluorophenyl)-1-methyl-1H-pyrazol-4-yl)pyridin-3-yl)methoxy)-1-(1H-1,2,4-triazol-1-yl)butan-2-ol] | 107 nM |
| Cn1cc(-c2ccnc3c2C(=O)N(CC2CCN(C[C@@](O)(Cn4cncn4)c4ccc(F)cc4F)CC2)C3)c(-c2ccc(F)cc2)n1 [Compound I-237, (R)-6-((1-(2-(2,4-difluorophenyl)-2-hydroxy-3-(1H-1,2,4-triazol-1-yl)propyl)piperidin-4-yl)methyl)-4-(3-(4-fluorophenyl)-1-methyl-1H-pyrazol-4-yl)-6,7-dihydro-5H-pyrrolo[3,4-b]pyridin-5-one] | 1.14 nM |
| O[C@](CNCc1ccc2c(-c3ccncc3)c(-c3ccc(F)cc3)nn2c1)(Cn1cncn1)c1ccc(F)cc1F [Compound I-252, (R)-2-(2,4-difluorophenyl)-1-(((2-(4-fluorophenyl)-3-(pyridin-4-yl)pyrazolo[1,5-a]pyridin-6-yl)methyl)amino)-3-(1H-1,2,4-triazol-1-yl)propan-2-ol] | 2.07 nM |
